Data set [1] concerns the target T1, hTRPV1 (Homo sapiens, UniProt Q8NER1).
T1 construct: CDS of NM_080704.4, inserted into the multiple cloning site of pcDNA3.1(+); host or cells: CHO/hKv7.2/3
Briefly: hTRPV1 dual activity electrophysiology, CHO cells co-expressing hKv7.2/3 and hTRPV1. The format is cell-based. The settings on record: 100 nM.

Data set [2] concerns hTRPV1. The data set is described as above. Type of data set: cell-based. The conditions noted are these: rat DRG and dual CHO.
For data set [3], the system named is Vasopressin 1-2. The experiment in a line: Functional screening panel, Vasopressin 1-2. Type of data set: biochemical. The settings on record: up to 10 micromolar. On the procedure: A broad panel of 78 recombinant targets was tested for pharmacologic activity in vitro through a variety of functional assays (Eurofins DiscoverX, USA), as part of the National Institute of Neurological Disorders and Stroke (NINDS) Preclinical Screening Platform for Pain (PSPP) program. The biological targets for the in vitro profiling have been selected based on avoiding opioid receptor stimulation and targets known to be associated with adverse events or targeted by drugs of abuse. […] For each test, a reference compound was evaluated at the target of interest as a positive control.

The target of data set [4] is OATP1B3 (Homo sapiens, UniProt Q9NPD5). Briefly: Transporter substrate, OATP1B3. Type of data set: in vitro ADME. The settings on record: role: substrate. The procedure: (§1) Additionally, compound 760 was tested for its capability to act as a transporter substrate for various transporters, and was not found to be a transporter substrate for any of the tested transporters.
Sequence of OATP1B3 (Q9NPD5 whole entry): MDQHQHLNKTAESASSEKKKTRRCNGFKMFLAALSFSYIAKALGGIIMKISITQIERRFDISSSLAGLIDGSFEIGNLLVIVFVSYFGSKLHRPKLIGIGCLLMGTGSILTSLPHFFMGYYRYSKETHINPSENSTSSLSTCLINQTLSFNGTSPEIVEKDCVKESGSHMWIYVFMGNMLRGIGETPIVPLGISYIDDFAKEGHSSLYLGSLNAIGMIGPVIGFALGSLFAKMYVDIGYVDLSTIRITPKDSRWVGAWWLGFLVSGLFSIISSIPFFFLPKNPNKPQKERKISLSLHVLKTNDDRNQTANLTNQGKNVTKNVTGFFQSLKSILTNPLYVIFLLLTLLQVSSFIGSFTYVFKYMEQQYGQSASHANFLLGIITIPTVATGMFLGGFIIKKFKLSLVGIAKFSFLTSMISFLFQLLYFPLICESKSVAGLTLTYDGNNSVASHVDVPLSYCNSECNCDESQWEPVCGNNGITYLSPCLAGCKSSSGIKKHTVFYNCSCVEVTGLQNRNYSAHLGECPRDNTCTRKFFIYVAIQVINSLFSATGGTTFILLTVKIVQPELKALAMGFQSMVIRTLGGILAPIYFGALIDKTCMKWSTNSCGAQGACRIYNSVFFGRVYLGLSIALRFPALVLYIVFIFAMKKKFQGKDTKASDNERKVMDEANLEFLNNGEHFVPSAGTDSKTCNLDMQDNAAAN

In data set [5] the target is OATP2B1 (Homo sapiens, UniProt O94956). Briefly: Transporter substrate, OATP2B1. The conditions noted are these: role: substrate. The format is in vitro ADME. The procedure: as §1
Sequence of OATP2B1 (O94956 whole entry): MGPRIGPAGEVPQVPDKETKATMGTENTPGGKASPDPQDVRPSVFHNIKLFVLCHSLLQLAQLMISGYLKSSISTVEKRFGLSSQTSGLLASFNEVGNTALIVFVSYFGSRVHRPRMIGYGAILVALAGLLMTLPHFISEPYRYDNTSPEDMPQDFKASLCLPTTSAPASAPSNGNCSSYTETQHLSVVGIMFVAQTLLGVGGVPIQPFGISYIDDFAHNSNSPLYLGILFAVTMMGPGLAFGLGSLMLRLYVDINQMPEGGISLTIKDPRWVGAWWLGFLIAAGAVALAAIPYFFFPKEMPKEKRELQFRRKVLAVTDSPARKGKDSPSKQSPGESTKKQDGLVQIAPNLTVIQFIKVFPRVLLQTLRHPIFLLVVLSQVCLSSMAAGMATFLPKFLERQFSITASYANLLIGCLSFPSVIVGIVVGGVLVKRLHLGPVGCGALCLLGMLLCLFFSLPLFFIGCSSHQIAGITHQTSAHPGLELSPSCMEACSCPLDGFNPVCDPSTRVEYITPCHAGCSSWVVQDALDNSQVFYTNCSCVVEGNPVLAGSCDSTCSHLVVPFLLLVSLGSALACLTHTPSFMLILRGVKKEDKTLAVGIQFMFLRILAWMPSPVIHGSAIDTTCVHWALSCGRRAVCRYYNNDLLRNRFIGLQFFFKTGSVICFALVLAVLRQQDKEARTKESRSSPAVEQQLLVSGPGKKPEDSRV
In data set [6] the target is OAT1 (Homo sapiens, UniProt Q4U2R8). Briefly: Transporter substrate, OAT1. The conditions noted are these: role: substrate. The format is in vitro ADME. On the procedure: as §1
Sequence of OAT1 (Q4U2R8 whole entry): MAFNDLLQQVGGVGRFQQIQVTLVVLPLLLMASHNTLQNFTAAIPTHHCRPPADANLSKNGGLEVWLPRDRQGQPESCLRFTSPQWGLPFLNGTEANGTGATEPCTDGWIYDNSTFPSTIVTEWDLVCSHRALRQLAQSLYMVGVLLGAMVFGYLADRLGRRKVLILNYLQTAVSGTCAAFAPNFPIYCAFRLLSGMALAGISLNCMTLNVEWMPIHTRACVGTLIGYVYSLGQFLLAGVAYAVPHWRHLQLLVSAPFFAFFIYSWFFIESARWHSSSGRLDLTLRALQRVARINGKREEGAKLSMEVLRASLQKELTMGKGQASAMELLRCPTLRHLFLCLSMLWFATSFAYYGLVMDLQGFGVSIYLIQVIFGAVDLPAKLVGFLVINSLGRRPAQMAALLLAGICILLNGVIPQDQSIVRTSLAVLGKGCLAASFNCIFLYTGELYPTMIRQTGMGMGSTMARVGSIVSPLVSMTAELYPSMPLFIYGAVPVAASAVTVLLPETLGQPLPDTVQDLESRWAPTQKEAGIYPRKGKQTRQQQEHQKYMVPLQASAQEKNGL
The subject of data set [7] is MATE2-K. The experiment in a line: Transporter substrate, MATE2-K. Type of data set: in vitro ADME. The conditions noted are these: role: substrate. On the procedure:
as §1

Data set [8] relates to human sensory neurons. Briefly: Human NPC-derived sensory neurons, spontaneous activity. The format is cell-based. The settings on record: 5 μM. On the procedure:
Cell culture and differentiation: Human PSC-derived neural progenitor cells (Stem Cell Catalog No. 70901 and 70902) were cultured and expanded on Matrigel coated 6-wells plates, using neuronal progenitor medium containing: Neurobasal media supplemented by non-essential amino-acids, 1%; Glutamax, 1%; B27, 2%, FGF2, 20 ng/mL). hNPC were then plated onto PDL and Matrigel coated 12 mm coverglass at a density of about 50,000 cells/well of a 6 well, in DMEM/F12; 10% KSR; 1% P/S and A83-01 (2 μM) from days 0-5. From days 0-9 the medium contained also CHIR99021 (6 μM). From Day 3-9 the medium included RO4929097 (2 μM) and SU5402 (3 μM). […]
Electrophysiology: To characterize the neuronal properties with electrophysiology recordings, round small neurons (20-40 μm in diameter) were selected from day 31 and onwards. Cells were monitored for their polarized negative membrane potential and for their ability to evoke consistent spikes train responses to repeated positive current injections as a mark of achieving electrical maturation before testing the effect of the tested compounds on neuronal excitability. Membrane excitability was monitored using current clamp. […]
The inhibitory potency of the newly designed compounds as described herein was evaluated based on their ability to reduce the spontaneous neuronal activity.

The record followed here is patent US20260327211A1, “MODULATORS OF A POTASSIUM CHANNEL AND OF TRPV1 CHANNEL AND USES THEREOF” (Bsense Bio Therapeutics Ltd., priority 2023, published 2026).

Entries after “also recorded” stand apart in the source; their conditions may differ.

T1 sequence (Q8NER1 whole entry): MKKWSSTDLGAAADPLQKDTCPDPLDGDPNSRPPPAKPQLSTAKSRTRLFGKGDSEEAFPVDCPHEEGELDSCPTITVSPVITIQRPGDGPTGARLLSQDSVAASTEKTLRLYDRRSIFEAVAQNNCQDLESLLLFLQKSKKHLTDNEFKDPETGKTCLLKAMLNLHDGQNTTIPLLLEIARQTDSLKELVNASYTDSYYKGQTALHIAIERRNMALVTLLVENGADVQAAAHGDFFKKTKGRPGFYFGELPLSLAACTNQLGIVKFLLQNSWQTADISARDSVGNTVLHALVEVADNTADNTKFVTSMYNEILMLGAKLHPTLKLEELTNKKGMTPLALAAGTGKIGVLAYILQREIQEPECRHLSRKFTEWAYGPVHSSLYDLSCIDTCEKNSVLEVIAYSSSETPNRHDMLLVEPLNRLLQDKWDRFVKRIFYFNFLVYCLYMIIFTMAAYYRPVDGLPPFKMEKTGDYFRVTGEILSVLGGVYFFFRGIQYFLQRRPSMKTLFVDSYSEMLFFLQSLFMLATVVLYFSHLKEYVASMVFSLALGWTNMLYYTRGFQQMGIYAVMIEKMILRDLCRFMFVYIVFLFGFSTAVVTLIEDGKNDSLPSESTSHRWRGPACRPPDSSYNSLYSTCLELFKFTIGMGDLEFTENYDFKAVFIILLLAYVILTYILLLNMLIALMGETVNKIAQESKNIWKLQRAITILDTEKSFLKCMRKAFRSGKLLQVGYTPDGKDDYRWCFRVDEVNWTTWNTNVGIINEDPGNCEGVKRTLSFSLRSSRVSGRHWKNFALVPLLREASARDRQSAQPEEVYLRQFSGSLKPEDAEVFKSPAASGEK

Take `O=C(Cc1cc(-n2cc(Cl)c3cc(Cl)cc(Cl)c32)ccc1F)NCCO` [Compound 627]: the “hTRPV1 inhibition without hKv7.2/3 activation” value in data set [1] is recorded as “lack of hTRPV1 inhibition-potency gain; also recorded: TRPV1 could not be inhibited even at 100 nM”.
Usually IC50 stands for the point on the concentration scale where inhibition reaches its midpoint. High values mean a need for much substance, low ones inhibition by little substance. `O=C(Cc1nccc(-n2cc(Cl)c3cc(Cl)cc(Cl)c32)n1)NC1COCC1O` (centres unmarked) [Compound 760] gave a half-maximal inhibitory concentration (IC50) in data set [2] of 0.1 to 0.23 nM. Further, the “Effect on Vasopressin 1-2” value in data set [3] was “no effect”. The OATP1B3 substrate result in data set [4] is reported as “not a transporter substrate”. For the same compound, the OATP2B1 substrate entry in data set [5] is given as “not a transporter substrate”. Moreover, in data set [6], the OAT1 substrate result is recorded as “not a transporter substrate”. Also, in data set [7], the MATE2-K substrate result was “not a transporter substrate”.
With `COC[C@@H](CO)NC(=O)Cc1cc(Sc2c(Cl)cc(F)cc2C(C)C)ccc1F` [Compound 415], the “Spontaneous activity of human sensory neurons” value in data set [8] is “significantly reduced”.
